Assays:
[1] = UV-Vis absorption spectroscopy of menadione; assay type: physicochemical
Protocol: Stock solutions of menadione (10 mg/mL) were prepared in DMSO only and in DMSO/Tween (1:1) to improve the solubility. Different concentrations of menadione were prepared to make a calibration curve by diluting the stock solution in PBS so that the final solution was either 1% DMSO or 1% DMSO/Tween. The absorbance spectra were measured using an Evolution™ 300 UV-Vis Spectrophotometer (Thermo Scientific, Waltham, Massachusetts, USA). The calibration curve was measured, and molar absorption coefficient calculated.
Thus, we dissolved the menadione in two conditions: in PBS containing either 1% DMSO or 1% DMSO/Tween80 at 400 μM. Tween 80 is a surfactant and the idea is to mix with the DMSO before to add to PBS is due to necessity to improve the solubility of menadione in aqueous solution. We measured the absorption spectrum in both conditions to analyze if there is any change in optical properties. The range of wavelength absorption of menadione was measured between 200-800 nm (see FIG. 12B) to choose the optimum wavelength of the light absorption spectra. […] The maximum wavelength of absorption found was 340 nm for both conditions. […] The molar absorptivity coefficient was compared in different wavelength according with the Table 1.

[2] = test system: P. aeruginosa biofilms in porcine explants; assay: Photoinactivation of biofilms in ex vivo porcine partial thickness wounds by menadione + aBL; assay type: cell-based, Pseudomonas aeruginosa
Protocol: Skin was handled and sanitized with 70% isopropanol solution after hair shaving. The explants and inner wounds were created using a 12 mm and 4 mm biopsy punches respectively. The explants were placed in 12 wells plates using a (8 μm pore) inserts (Corning™ Falcon™). 1 mL of DMEM media was added to each well in the plate before the insert. After 24 hours, the inner wounds in the explants were inoculated with 20 μL of 10^8 CFU/mL of bacterial solution. After that, the explants were incubated at 37° C. and 5% CO2 for 48 hours to ensure the growth of a mature bacterial biofilm. The inner wounds of the explants were replenished daily with fresh BHI media to ensure that the wounds are hydrated.
48 hours following the inoculation, mature monobacterial biofilms of MRSA, P. aeruginosa, and E. coli were obtained with 8.00 log10 CFU/g per wound bed on each explant. MRSA biofilms in explant were reduced by 0.81 log10 CFU/g after the treatment of just aBL 250 J/cm^2 (50 mW/cm^2). However, MRSA biofilms in ex-vivo porcine skin were reduced by up to 4.18 log10 CFU/g when treated with aBL combined with menadione (200 μg/mL). For MRSA biofilms, the log reduction of mature monobacterial biofilm increased as the menadione concentration increased (see FIGS. 16A-16B). […]

[3] = ROS probes (DCF-DA, SOSG, HPF) in the absence of bacteria
Protocol: 1.2.9.1 General ROS measured by […] (DCFH-DA) assay: DCF-DA was purchased from Thermofisher. […] The production of ROS by menadione when combined with blue light was measured in the presence and absence of bacteria. The bacteria (MRSA) was grown in BHI broth medium with shaking overnight. Cells were collected by centrifugation at 4,000 rpm for 5 minutes and resuspended in PBS in the stationary growth phase culture of 1×10^8 CFU/mL. The microbial suspension was transferred to a 35×12-mm dish, mixed with 10 μg/mL of menadione, and stained with 10 μM DCFH-DA solution per the manufacturer's instruction. The solutions (with and without bacteria) were irradiated with the blue light at 50 mW/cm^2 and the samples were collected every 15 minutes to be analyzed by Microplate Spectrofluorometer (SPECTRAmax®, Molecular Devices, USA) at λex=495 nm and λem=525 nm. The control and the menadione/dark groups were generated under the same conditions without irradiation.
To do so, the production of ROS by menadione combined with blue light was measured by different ROS probes, DCF-DA, SOSG and HPF, in the presence and absence of MRSA. […] Oxidation of these probes can be detected by monitoring the increasing of fluorescence signals. […]

S. aureus MN8 = S. aureus MN8 cultured aerobically vs anaerobically; cited from earlier work

CC1=CC(=O)c2ccccc2C1=O [menadione, 2-methyl-1,4-naphthoquinone]
maximum wavelength of absorption ([1]; 400 μM in PBS with 1% DMSO or 1% DMSO/Tween80, both conditions): 340 nm | ε, molar absorptivity coefficient, λ = 340 nm ([1]; 1% DMSO in PBS): 2458 L/mol/cm | ε, molar absorptivity coefficient, λ = 380 nm ([1]; 1% DMSO in PBS): 572.1 L/mol/cm | ε, molar absorptivity coefficient, λ = 405 nm ([1]; 1% DMSO in PBS): 128.82 L/mol/cm | ε, molar absorptivity coefficient, λ = 340 nm ([1]; 1% DMSO/Tween in PBS): 2064 L/mol/cm | ε, molar absorptivity coefficient, λ = 380 nm ([1]; 1% DMSO/Tween in PBS): 410.31 L/mol/cm | ε, molar absorptivity coefficient, λ = 405 nm ([1]; 1% DMSO/Tween in PBS): 113.85 L/mol/cm | biofilm reduction by menadione and blue light ([2]; 50 μg/mL menadione + blue light): 5.27 log10 CFU/mL | biofilm reduction by menadione in the absence of aBL ([2]; no aBL): no effect of biofilm reduction | fluorescence signal of ROS probes, menadione exposed to blue light ([3]; 405 nm, DCF-DA, SOSG, HPF): higher fluorescence signal | fluorescence signal of ROS probes, menadione dark group ([3]; no irradiation): negligible | bactericidal activity, aerobic vs anaerobic culture (S. aureus MN8): 4 fold

From US20240416143A1, “PHOTONIC ANTIMICROBIAL WOUND SURFACE DRESSING” (The General Hospital Corporation, priority 2021, published 2024)
